From the NIST ThermoML archive (doi:10.1021/je049907t)
± gives the expanded uncertainty stated by the source.

What was measured:
[1] = for Normal melting temperature: Crystal 1, visual observation
[2] = Molar enthalpy of transition or fusion; conditions: Crystal

Row | Triple point temperature ([1]; Crystal) | Molar enthalpy of transition or fusion [2] | Normal melting temperature [1] | SMILES
1 | 504.84 ± 1 K | 8.17 ± 0.454 kcal/mol |  | c1ccc(-c2nc[nH]c2-c2ccccc2)cc1 [4,5-diphenylimidazole]
2 |  |  | 178.28 ± 0.5 °C | Cc1nc2ccccc2[nH]1 [2-methylbenzimidazole]
3 |  |  | 146 ± 0.5 °C | Cc1ncc[nH]1 [2-methylimidazole]
4 |  |  | 172.36 ± 0.5 °C | c1ccc2[nH]cnc2c1 [benzimidazole]
